Source: ChEMBL document CHEMBL3991601, “The target landscape of clinical kinase drugs” (Science, 2017)
Counter-ions that a name gives are not always drawn. Activity calls are given as the source filed them. Rule as the data show it, for most assays here: actives have a measured Kd and inactives only a lower limit.

Experiments:
[1] = target: Tyrosine-protein kinase ABL2 (Homo sapiens, UniProt P42684)
Aurora kinase A = target: T1, Aurora kinase A (Homo sapiens, UniProt O14965)
T1 sequence (O14965 whole entry): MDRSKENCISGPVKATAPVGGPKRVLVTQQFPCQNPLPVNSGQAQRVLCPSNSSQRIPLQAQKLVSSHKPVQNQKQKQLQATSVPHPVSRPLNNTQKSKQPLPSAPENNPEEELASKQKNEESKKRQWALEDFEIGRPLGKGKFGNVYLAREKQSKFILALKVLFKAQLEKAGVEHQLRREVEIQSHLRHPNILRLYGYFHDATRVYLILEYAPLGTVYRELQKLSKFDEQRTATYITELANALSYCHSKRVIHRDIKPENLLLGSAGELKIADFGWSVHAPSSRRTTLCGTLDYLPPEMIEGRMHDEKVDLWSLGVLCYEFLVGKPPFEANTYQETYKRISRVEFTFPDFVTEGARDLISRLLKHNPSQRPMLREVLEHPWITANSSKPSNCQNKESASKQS

[2] = target: Calcium/calmodulin-dependent protein kinase type II subunit delta (Homo sapiens, UniProt Q13557)
Sequence of Calcium/calmodulin-dependent protein kinase type II subunit delta (Q13557 whole entry): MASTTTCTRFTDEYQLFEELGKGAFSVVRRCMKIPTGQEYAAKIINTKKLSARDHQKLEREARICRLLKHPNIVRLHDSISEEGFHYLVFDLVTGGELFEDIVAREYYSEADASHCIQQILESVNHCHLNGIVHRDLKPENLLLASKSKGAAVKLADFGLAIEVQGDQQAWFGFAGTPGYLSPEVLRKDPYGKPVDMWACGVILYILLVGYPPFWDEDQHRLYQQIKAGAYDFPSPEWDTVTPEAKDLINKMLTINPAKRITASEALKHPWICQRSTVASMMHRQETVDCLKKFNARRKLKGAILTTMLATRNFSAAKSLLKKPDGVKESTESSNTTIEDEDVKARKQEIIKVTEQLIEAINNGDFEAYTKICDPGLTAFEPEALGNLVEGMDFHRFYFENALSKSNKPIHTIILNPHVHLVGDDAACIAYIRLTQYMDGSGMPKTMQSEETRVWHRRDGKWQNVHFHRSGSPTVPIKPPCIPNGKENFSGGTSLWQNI

[3] = target: T2, ATP-dependent RNA helicase DDX42 (Homo sapiens, UniProt Q86XP3)
T2 sequence (Q86XP3 whole entry): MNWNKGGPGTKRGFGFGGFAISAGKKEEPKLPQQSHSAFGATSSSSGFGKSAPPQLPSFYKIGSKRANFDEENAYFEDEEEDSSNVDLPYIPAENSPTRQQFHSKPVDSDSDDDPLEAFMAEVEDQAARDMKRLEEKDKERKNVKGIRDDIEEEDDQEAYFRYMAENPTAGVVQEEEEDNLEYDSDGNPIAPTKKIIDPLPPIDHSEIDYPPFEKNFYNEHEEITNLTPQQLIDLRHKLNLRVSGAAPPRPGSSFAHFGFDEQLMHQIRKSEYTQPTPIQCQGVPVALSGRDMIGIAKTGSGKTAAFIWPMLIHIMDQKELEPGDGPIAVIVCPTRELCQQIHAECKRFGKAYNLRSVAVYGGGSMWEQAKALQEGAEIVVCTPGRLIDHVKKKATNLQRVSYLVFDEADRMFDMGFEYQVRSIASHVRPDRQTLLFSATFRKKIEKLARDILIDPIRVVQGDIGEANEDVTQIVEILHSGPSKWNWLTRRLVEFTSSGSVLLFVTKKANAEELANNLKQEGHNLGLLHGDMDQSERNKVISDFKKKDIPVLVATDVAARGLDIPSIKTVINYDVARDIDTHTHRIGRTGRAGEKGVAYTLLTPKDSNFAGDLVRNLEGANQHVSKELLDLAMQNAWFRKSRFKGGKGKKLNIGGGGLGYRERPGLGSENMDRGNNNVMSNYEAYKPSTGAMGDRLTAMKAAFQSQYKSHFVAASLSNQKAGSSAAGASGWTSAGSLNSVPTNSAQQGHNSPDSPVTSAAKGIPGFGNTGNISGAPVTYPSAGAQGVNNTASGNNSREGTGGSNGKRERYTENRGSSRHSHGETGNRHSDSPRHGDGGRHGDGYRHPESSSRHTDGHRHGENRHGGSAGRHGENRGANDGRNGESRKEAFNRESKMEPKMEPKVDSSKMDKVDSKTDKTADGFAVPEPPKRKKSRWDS

Ephrin type-A receptor 7 = Ephrin type-A receptor 7 (Homo sapiens, UniProt Q15375)
Sequence of Ephrin type-A receptor 7 (Q15375 whole entry): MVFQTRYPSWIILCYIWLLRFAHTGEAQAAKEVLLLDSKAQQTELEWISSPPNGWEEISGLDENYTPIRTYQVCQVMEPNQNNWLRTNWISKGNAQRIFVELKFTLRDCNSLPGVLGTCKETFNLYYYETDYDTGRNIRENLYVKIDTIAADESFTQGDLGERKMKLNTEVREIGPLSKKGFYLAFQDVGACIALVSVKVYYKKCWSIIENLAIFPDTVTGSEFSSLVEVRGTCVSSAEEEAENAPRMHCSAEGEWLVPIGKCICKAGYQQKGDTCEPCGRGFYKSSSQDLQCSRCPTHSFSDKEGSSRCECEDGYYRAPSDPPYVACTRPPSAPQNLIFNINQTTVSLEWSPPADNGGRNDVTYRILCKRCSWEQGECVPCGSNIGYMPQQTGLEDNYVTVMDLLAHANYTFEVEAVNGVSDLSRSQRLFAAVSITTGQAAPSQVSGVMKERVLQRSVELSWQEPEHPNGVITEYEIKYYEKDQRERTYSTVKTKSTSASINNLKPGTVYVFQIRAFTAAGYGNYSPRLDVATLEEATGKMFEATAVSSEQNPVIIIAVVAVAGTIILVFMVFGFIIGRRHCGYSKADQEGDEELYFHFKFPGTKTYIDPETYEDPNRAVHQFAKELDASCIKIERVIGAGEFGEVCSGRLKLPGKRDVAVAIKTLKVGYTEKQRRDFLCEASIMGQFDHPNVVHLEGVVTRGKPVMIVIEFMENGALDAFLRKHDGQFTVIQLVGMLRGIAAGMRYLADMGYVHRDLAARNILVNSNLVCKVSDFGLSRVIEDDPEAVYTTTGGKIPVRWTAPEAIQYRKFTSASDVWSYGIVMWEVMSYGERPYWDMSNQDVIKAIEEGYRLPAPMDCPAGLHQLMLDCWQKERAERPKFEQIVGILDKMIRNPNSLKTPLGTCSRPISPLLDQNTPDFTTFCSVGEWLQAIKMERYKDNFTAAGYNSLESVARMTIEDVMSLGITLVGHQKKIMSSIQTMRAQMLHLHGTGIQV

[4] = target: Mitogen-activated protein kinase kinase kinase kinase 5 (Homo sapiens, UniProt Q9Y4K4)
Sequence of Mitogen-activated protein kinase kinase kinase kinase 5 (Q9Y4K4 whole entry): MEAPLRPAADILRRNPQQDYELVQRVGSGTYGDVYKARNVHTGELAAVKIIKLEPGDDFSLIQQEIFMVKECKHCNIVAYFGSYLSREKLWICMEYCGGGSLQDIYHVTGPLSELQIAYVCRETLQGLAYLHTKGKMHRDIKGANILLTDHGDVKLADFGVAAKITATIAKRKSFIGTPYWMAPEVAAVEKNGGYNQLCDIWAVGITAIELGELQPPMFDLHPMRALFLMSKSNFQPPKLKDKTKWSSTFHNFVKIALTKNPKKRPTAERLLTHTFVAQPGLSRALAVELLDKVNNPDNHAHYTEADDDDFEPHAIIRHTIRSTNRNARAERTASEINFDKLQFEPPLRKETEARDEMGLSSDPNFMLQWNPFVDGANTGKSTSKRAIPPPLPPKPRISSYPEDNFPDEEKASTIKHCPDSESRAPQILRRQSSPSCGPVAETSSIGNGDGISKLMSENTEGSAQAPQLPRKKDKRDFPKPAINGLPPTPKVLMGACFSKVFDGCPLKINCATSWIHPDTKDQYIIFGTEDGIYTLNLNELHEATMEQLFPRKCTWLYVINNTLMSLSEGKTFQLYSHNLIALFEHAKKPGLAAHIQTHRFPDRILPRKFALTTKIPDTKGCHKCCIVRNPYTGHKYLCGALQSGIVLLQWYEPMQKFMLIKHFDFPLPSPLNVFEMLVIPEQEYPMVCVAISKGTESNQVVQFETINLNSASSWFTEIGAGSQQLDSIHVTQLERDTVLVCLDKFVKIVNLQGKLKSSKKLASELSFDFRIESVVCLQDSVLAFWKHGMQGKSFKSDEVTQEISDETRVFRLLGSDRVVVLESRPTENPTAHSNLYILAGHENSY

[5] = target: Mitogen-activated protein kinase 7 (Homo sapiens, UniProt Q13164)
Sequence of Mitogen-activated protein kinase 7 (Q13164 whole entry): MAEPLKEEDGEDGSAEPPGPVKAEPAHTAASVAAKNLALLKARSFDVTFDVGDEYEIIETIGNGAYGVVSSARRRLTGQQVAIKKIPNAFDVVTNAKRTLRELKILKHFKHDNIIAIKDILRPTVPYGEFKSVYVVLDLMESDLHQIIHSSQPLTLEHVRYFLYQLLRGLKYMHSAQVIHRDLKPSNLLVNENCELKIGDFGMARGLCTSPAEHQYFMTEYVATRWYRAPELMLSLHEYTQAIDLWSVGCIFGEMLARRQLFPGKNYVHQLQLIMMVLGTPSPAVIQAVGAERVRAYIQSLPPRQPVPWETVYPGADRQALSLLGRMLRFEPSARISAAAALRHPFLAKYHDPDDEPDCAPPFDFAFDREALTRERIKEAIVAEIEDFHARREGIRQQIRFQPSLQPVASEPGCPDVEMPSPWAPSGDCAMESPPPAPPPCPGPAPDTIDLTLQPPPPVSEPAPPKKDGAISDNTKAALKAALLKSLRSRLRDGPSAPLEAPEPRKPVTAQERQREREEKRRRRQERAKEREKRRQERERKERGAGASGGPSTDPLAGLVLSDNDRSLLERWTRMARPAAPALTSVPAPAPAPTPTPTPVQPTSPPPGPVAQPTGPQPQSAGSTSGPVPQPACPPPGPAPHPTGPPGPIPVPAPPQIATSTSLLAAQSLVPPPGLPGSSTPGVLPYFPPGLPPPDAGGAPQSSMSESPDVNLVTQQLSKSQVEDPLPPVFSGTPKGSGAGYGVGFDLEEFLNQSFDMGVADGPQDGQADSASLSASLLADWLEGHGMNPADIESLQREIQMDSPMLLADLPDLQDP

[6] = target: Ras-related protein Rab-6A (Homo sapiens, UniProt P20340)
Sequence of Ras-related protein Rab-6A (P20340 whole entry): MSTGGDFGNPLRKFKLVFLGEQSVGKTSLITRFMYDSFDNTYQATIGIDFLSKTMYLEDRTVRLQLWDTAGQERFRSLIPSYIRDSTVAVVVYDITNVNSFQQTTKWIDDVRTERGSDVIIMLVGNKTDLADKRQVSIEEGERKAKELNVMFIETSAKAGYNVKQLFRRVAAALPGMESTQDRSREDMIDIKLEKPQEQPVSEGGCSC

[7] = target: Serine/threonine-protein kinase 26 (Homo sapiens, UniProt Q9P289)
Sequence of Serine/threonine-protein kinase 26 (Q9P289 whole entry): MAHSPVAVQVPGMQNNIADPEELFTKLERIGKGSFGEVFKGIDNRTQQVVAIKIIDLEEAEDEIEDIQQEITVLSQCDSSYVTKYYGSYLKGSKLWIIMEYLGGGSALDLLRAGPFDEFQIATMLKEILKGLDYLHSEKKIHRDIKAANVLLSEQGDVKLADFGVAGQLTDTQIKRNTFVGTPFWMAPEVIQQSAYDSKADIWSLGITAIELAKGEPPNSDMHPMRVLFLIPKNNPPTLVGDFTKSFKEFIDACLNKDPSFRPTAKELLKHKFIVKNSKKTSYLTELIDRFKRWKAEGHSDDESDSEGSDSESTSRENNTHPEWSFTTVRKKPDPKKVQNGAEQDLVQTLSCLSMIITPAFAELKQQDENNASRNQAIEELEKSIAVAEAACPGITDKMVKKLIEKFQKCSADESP

[8] = target: T3, Serine/threonine-protein kinase 4 (Homo sapiens, UniProt Q13043)
T3 sequence (Q13043 whole entry): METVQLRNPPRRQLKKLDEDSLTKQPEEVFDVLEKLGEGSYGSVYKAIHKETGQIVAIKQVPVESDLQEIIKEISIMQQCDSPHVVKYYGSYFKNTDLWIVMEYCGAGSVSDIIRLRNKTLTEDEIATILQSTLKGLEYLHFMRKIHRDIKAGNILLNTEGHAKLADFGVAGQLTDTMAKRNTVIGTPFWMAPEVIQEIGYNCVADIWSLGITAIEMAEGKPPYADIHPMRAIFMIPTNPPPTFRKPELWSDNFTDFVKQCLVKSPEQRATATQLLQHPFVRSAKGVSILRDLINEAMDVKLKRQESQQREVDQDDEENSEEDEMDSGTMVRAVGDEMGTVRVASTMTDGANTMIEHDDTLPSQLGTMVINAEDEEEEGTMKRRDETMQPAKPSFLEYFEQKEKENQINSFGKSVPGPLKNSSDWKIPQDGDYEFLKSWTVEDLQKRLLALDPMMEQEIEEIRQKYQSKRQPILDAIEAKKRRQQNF

[9] = target: T4, Succinate--CoA ligase [ADP-forming] subunit beta, mitochondrial (Homo sapiens, UniProt Q9P2R7)
T4 sequence (Q9P2R7 whole entry): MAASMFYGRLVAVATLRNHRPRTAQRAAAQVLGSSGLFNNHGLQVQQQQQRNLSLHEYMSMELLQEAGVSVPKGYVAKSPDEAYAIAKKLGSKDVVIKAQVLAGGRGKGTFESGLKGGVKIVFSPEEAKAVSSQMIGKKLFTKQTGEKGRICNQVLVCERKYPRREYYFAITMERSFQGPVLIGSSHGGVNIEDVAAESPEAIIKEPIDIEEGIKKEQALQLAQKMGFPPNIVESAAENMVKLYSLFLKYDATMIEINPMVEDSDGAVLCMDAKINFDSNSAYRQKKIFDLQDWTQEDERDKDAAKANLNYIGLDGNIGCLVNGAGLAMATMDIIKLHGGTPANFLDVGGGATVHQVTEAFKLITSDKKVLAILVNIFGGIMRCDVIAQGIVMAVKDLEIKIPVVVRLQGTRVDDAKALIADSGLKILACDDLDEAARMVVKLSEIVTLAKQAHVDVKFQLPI

[10] = target: Elongation factor Tu, mitochondrial (Homo sapiens, UniProt P49411)
Also: in the data inactive means no Kd found up to 30 µM.

Sequence of Tyrosine-protein kinase ABL2 (P42684 whole entry): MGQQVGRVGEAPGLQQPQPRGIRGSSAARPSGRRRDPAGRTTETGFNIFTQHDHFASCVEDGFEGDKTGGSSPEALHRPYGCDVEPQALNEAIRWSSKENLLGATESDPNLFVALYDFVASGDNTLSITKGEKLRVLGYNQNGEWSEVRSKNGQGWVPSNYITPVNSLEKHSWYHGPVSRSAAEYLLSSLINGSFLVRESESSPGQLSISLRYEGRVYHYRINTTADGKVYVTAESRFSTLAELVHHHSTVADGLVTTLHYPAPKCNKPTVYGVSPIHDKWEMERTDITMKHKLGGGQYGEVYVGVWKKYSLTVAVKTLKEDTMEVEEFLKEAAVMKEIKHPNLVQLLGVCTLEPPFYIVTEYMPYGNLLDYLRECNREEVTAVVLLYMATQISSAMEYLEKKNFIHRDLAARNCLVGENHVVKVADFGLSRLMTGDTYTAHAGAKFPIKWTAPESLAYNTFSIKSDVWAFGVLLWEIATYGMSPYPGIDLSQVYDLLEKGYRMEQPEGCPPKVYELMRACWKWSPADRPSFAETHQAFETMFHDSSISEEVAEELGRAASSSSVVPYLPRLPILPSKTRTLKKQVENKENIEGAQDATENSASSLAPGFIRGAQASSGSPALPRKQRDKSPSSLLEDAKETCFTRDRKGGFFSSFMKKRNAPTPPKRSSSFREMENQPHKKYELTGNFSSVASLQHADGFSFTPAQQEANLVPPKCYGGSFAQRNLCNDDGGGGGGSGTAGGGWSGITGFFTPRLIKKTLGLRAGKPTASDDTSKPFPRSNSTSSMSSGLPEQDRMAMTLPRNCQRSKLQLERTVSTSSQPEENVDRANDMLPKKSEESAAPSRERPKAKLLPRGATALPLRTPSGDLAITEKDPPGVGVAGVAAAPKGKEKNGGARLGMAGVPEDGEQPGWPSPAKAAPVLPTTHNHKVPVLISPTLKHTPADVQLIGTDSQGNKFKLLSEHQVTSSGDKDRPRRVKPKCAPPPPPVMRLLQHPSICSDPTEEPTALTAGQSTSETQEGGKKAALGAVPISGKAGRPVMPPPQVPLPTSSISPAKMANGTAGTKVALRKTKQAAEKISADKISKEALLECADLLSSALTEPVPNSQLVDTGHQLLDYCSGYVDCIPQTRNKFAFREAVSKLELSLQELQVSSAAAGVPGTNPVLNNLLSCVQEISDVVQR

| SMILES | Kd [1] | Kd (Aurora kinase A) | Kd [2] | Kd [3] | Kd (Ephrin type-A receptor 7) | Kd [4] | Kd [5] | Kd [6] | Kd [7] | Kd [8] | Kd [9] | Kd [10] |
| --- | --- | --- | --- | --- | --- | --- | --- | --- | --- | --- | --- | --- |
| O=C(Nc1cc(C(F)(F)F)cc(C(F)(F)F)c1)c1cc(Cl)ccc1O [IMD-0354] | > 30 µM (inactive) | > 30 µM (inactive) | > 30 µM (inactive) | > 30 µM (inactive) | > 30 µM (inactive) | 1.46 µM (active) | > 30 µM (inactive) | > 30 µM (inactive) | > 30 µM (inactive) | > 30 µM (inactive) | > 30 µM (inactive) | > 30 µM (inactive) |
| Cc1cc(Nc2ncnc3ccc(NC4=NC(C)(C)CO4)cc23)ccc1Oc1ccn2ncnc2c1 [TUCATINIB] | > 30 µM (inactive) | > 30 µM (inactive) | > 30 µM (inactive) | > 30 µM (inactive) | > 30 µM (inactive) | > 30 µM (inactive) | > 30 µM (inactive) | > 30 µM (inactive) | > 30 µM (inactive) | > 30 µM (inactive) | > 30 µM (inactive) | > 30 µM (inactive) |
| O=C(Cc1ccc(-c2ccc(OCCN3CCOCC3)cc2)cn1)NCc1ccccc1 [TIRBANIBULIN] | > 30 µM (inactive) | > 30 µM (inactive) | > 30 µM (inactive) | > 30 µM (inactive) | > 30 µM (inactive) | > 30 µM (inactive) | > 30 µM (inactive) | > 30 µM (inactive) | > 30 µM (inactive) | > 30 µM (inactive) | > 30 µM (inactive) | > 30 µM (inactive) |
| CCS(=O)(=O)N1CCN(c2ccc(Nc3ncc(C(N)=O)c(NC4CC4)n3)cc2)CC1 [Cerdulatinib Hydrochloride] | > 30 µM (inactive) | > 30 µM (inactive) | > 30 µM (inactive) | > 30 µM (inactive) | > 30 µM (inactive) | 19.2 µM (active) | > 30 µM (inactive) | > 30 µM (inactive) | 0.029 µM | 0.102 µM (active) | > 30 µM (inactive) | > 30 µM (inactive) |
| CCCCCCCCCCCCCCCCCCOP(=O)([O-])OC1CC[N+](C)(C)CC1 [PERIFOSINE] | > 30 µM (inactive) | > 30 µM (inactive) | > 30 µM (inactive) | > 30 µM (inactive) | > 30 µM (inactive) | > 30 µM (inactive) | > 30 µM (inactive) | > 30 µM (inactive) | > 30 µM (inactive) | > 30 µM (inactive) | > 30 µM (inactive) | > 30 µM (inactive) |
| O=C(Nc1nc2cccc(-c3ccc(CN4CCS(=O)(=O)CC4)cc3)n2n1)C1CC1 [FILGOTINIB] | > 30 µM (inactive) | > 30 µM (inactive) | > 30 µM (inactive) | > 30 µM (inactive) | > 30 µM (inactive) | > 30 µM (inactive) | > 30 µM (inactive) | > 30 µM (inactive) | > 30 µM (inactive) | > 30 µM (inactive) | > 30 µM (inactive) | > 30 µM (inactive) |

Continued, values first:

| Kd [1] | Kd (Aurora kinase A) | Kd [2] | Kd [3] | Kd (Ephrin type-A receptor 7) | Kd [4] | Kd [5] | Kd [6] | Kd [7] | Kd [8] | Kd [9] | Kd [10] | SMILES |
| --- | --- | --- | --- | --- | --- | --- | --- | --- | --- | --- | --- | --- |
| 0.03 µM (active) | > 30 µM (inactive) | > 30 µM (inactive) | > 30 µM (inactive) | > 30 µM (inactive) | 20.1 µM (active) | > 30 µM (inactive) | > 30 µM (inactive) | > 30 µM (inactive) | > 30 µM (inactive) | > 30 µM (inactive) | > 30 µM (inactive) | COc1cc2ncnc(Oc3cccc(NC(=O)Nc4cc(C(C)(C)C(F)(F)F)on4)c3)c2cc1OC [CEP-32496] |
| > 30 µM (inactive) | > 30 µM (inactive) | > 30 µM (inactive) | > 30 µM (inactive) | > 30 µM (inactive) | > 30 µM (inactive) | > 30 µM (inactive) | > 30 µM (inactive) | 2.19 µM (active) | > 30 µM (inactive) | > 30 µM (inactive) | > 30 µM (inactive) | Cc1nc2cc(-c3nn(C(C)C)c4ncnc(N)c34)ccc2o1 |
| > 30 µM (inactive) | > 30 µM (inactive) | > 30 µM (inactive) | > 30 µM (inactive) | > 30 µM (inactive) | > 30 µM (inactive) | > 30 µM (inactive) | > 30 µM (inactive) | > 30 µM (inactive) | > 30 µM (inactive) | > 30 µM (inactive) | > 30 µM (inactive) | COCC(=O)NC/C=C/c1ccc2ncnc(Nc3ccc(Oc4ccc(C)nc4)c(C)c3)c2c1 [CP-724714] |
| 3.75 µM | > 30 µM (inactive) | > 30 µM (inactive) | > 30 µM (inactive) | > 30 µM (inactive) | 10 µM (active) | > 30 µM (inactive) | > 30 µM (inactive) | > 30 µM (inactive) | > 30 µM (inactive) | > 30 µM (inactive) | > 30 µM (inactive) | CNC(=O)c1nn(C)c2c1C(C)(C)Cc1cnc(Nc3ccc(N4CCN(C)CC4)cc3)nc1-2 [MILCICLIB] |
| > 30 µM (inactive) | > 30 µM (inactive) | > 30 µM (inactive) | > 30 µM (inactive) | > 30 µM (inactive) | 20.9 µM (active) | > 30 µM (inactive) | > 30 µM (inactive) | > 30 µM (inactive) | > 30 µM (inactive) | > 30 µM (inactive) | > 30 µM (inactive) | C[C@@H](Oc1cc(C(=O)Nc2ccc(C(=O)N3CCN(C)CC3)cc2)nnc1N)c1c(Cl)ccc(F)c1Cl |
| > 30 µM (inactive) | > 30 µM (inactive) | > 30 µM (inactive) | > 30 µM (inactive) | > 30 µM (inactive) | > 30 µM (inactive) | > 30 µM (inactive) | > 30 µM (inactive) | > 30 µM (inactive) | > 30 µM (inactive) | > 30 µM (inactive) | > 30 µM (inactive) | Cc1cccc(-c2nn3c(c2-c2ccnc4ccc(C(N)=O)cc24)CCC3)n1 [GALUNISERTIB] |
